# From US9493446B2, “Orexin receptor antagonists which are [ortho bi-(hetero-)aryl]-[2-(meta bi-(hetero-)aryl)-pyrrolidin-1-yl]-methanone derivatives” (Actelion Pharmaceuticals Ltd, priority 2012, dated 2016)
# Like-named read-outs stand apart in the source and are kept apart here.
# Experiments:
# orexin-1 = orexin-1 (Homo sapiens (Human), UniProt O43613); test: Intracellular calcium measurement (FLIPR), CHO cells expressing human orexin-1 receptor, 3 nM orexin-A; type: cell-based; details: read-out: IC50 OX1
# Outline: (§1)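 HBSS buffer with 0.1% BSA, NaHCO3 and 20 mM HEPES carries both compounds and agonist. Dye: fluo-4 AM (3 μM) with 5 mM probenecid. Compound exposure 120 min; peak signal scored against uninhibited orexin-A response.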
# human orexin-2 receptor = human orexin-2 receptor (Homo sapiens (Human), UniProt O43614); test: Intracellular calcium measurement (FLIPR), CHO cells expressing human orexin-2 receptor, 3 nM orexin-A; type: cell-based; details: read-out: IC50 OX2
# Outline: as §1
# [1] = CHO cells expressing human orexin-1 receptor, FLIPR, 3 nM orexin-A, geometric mean if determined several times
# [2] = CHO cells expressing human orexin-2 receptor, FLIPR, 3 nM orexin-A, geometric mean if determined several times
# Sequence of human orexin-2 receptor (O43614 whole entry): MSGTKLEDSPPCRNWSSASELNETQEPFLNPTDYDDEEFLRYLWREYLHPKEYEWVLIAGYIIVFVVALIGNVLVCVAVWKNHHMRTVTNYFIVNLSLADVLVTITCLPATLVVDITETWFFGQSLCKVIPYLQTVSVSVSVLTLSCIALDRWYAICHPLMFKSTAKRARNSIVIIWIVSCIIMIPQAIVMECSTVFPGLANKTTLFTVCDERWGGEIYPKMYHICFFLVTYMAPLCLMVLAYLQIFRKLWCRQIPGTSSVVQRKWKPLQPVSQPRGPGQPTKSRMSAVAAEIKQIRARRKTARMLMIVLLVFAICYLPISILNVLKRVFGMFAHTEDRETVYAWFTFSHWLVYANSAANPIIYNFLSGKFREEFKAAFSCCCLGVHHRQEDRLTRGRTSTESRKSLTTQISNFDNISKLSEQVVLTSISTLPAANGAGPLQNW
# Sequence of orexin-1 (O43613 whole entry): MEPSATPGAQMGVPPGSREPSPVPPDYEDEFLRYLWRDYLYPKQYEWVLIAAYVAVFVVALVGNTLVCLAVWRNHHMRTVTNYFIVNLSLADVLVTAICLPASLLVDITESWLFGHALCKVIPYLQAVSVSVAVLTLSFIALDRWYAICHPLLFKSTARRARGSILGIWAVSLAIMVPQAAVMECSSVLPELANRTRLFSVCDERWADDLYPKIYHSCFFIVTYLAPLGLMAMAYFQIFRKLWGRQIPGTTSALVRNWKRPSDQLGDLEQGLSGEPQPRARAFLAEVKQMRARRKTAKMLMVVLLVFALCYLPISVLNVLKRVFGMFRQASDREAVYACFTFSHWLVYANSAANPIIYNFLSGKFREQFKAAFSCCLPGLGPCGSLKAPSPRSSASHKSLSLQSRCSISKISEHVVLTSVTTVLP
SMILES,IC50 (orexin-1; [1]) [nM],IC50 (human orexin-2 receptor; [2]) [nM],IC50 (human orexin-2 receptor) [nM],IC50 (orexin-1) [nM]
"COc1cc(-c2noc([C@@H]3CCCN3C(=O)c3cc(C)ccc3-n3nccn3)n2)cc(C)n1 [compound 66, {(S)-2-[3-(2-Methoxy-6-methyl-pyridin-4-yl)-[1,2,4]oxadiazol-5-yl]-pyrrolidin-1-yl}-(5-methyl-2-[1,2,3]triazol-2-yl-phenyl)-methanone]",302,155,–,–
"Cc1ccc(-n2nccn2)c(C(=O)N2CCC[C@H]2c2cc(-c3cccnc3OC(C)C)no2)c1 [compound 427, {(S)-2-[3-(2-Isopropoxy-pyridin-3-yl)-isoxazol-5-yl]-pyrrolidin-1-yl}-(5-methyl-2-[1,2,3]triazol-2-yl-phenyl)-methanone]",80,292,–,–
"COc1ccc(C)c(-c2nc([C@@H]3CCCN3C(=O)c3ccc(C)cc3-n3nccn3)no2)c1 [compound 413, {(S)-2-[5-(5-Methoxy-2-methyl-phenyl)-[1,2,4]oxadiazol-3-yl]-pyrrolidin-1-yl}-(4-methyl-2-[1,2,3]triazol-2-yl-phenyl)-methanone]",163,30,–,–
"Cc1ccc(-n2nccn2)c(C(=O)N2CCC[C@H]2c2noc(-c3cc(C)ccc3C)n2)c1 [compound 390, {(S)-2-[5-(2,5-Dimethyl-phenyl)-[1,2,4]oxadiazol-3-yl]-pyrrolidin-1-yl}-(5-methyl-2-[1,2,3]triazol-2-yl-phenyl)-methanone]",73,6,–,–
COc1cc(C(=O)N2CCC[C@H]2c2noc(-c3cccc(Cl)c3OC)n2)c(-n2nccn2)cc1C [compound 348],10,1,–,–
"Cc1ccc(-n2nccn2)c(C(=O)N2CCC[C@H]2c2ncc(-c3ccccc3)[nH]2)c1 [compound 527, (5-Methyl-2-[1,2,3]triazol-2-yl-phenyl)-[(S)-2-(5-phenyl-1H-imidazol-2-yl)-pyrrolidin-1-yl]-methanone]",389,109,–,–
"CCOc1ccccc1-c1noc([C@@H]2CCCN2C(=O)c2nc(C)ccc2-n2nccn2)n1 [compound 259, {(S)-2-[3-(2-Ethoxy-phenyl)-[1,2,4]oxadiazol-5-yl]-pyrrolidin-1-yl}-(6-methyl-3-[1,2,3]triazol-2-yl-pyridin-2-yl)-methanone]",352,99,–,–
COc1c(F)cccc1-c1nc([C@@H]2CCCN2C(=O)c2ccc(Cl)cc2-n2nccn2)no1 [compound 378],30,–,2,–
"COc1c(F)cccc1-c1nnc([C@@H]2CCCN2C(=O)c2cc(C)c(C)cc2-n2nccn2)[nH]1 [compound 474, (4,5-Dimethyl-2-[1,2,3]triazol-2-yl-phenyl)-{(S)-2-[5-(3-fluoro-2-methoxy-phenyl)-4H-[1,2,4]triazol-3-yl]-pyrrolidin-1-yl}-methanone]",16,8,–,–
"COc1c(F)cccc1-c1cc([C@@H]2CCCN2C(=O)c2cc(C)ccc2-n2nccn2)on1 [compound 429, {(S)-2-[3-(3-Fluoro-2-methoxy-phenyl)-isoxazol-5-yl]-pyrrolidin-1-yl}-(5-methyl-2-[1,2,3]triazol-2-yl-phenyl)-methanone]",98,26,–,–
"N#Cc1ccc(-n2nccn2)c(C(=O)N2CCC[C@H]2c2nc(-c3ccccc3OC(F)(F)F)no2)c1 [compound 275, 4-[1,2,3]Triazol-2-yl-3-{(S)-2-[3-(2-trifluoromethoxy-phenyl)-[1,2,4]oxadiazol-5-yl]-pyrrolidine-1-carbonyl}-benzonitrile]",210,161,–,–
"Cc1cc(F)cc(C(=O)N2CCC[C@H]2c2nc(-c3ccccc3OC(F)(F)F)no2)c1-n1nccn1 [compound 176, (5-Fluoro-3-methyl-2-[1,2,3]triazol-2-yl-phenyl)-{(S)-2-[3-(2-trifluoromethoxy-phenyl)-[1,2,4]oxadiazol-5-yl]-pyrrolidin-1-yl}-methanone]",258,151,–,–
Cc1ccc(-n2nccn2)c(C(=O)N2CCC[C@H]2c2cc(-c3cccc(Cl)c3C)n[nH]2)c1 [compound 534],410,53,–,–
"Cc1ccc(-n2nccn2)c(C(=O)N2CCC[C@H]2c2nc(-c3cccnc3OC3CCCC3)no2)c1 [compound 49, {(S)-2-[3-(2-Cyclopentyloxy-pyridin-3-yl)-[1,2,4]oxadiazol-5-yl]-pyrrolidin-1-yl}-(5-methyl-2-[1,2,3]triazol-2-yl-phenyl)-methanone]",89,233,–,–
"COc1cc(C(=O)N2CCC[C@H]2c2noc(-c3cccc(F)c3OC)n2)c(-n2nccn2)cc1C [compound 341, {(S)-2-[5-(3-Fluoro-2-methoxy-phenyl)-[1,2,4]oxadiazol-3-yl]-pyrrolidin-1-yl}-(5-methoxy-4-methyl-2-[1,2,3]triazol-2-yl-phenyl)-methanone]",13,1,–,–
"Cc1ccc(C(=O)N2CCC[C@H]2c2nc(-c3ccccc3OC(F)(F)F)no2)c(-n2nccn2)c1 [compound 147, (4-Methyl-2-[1,2,3]triazol-2-yl-phenyl)-{(S)-2-[3-(2-trifluoromethoxy-phenyl)-[1,2,4]oxadiazol-5-yl]-pyrrolidin-1-yl}-methanone]",31,15,–,–
"Cc1ccc(-n2nccn2)c(C(=O)N2CCC[C@H]2c2nnc(-c3ccccc3OC(F)(F)F)s2)c1 [Example 458, (5-Methyl-2-[1,2,3]triazol-2-yl-phenyl)-{(S)-2-[5-(2-trifluoromethoxy-phenyl)-[1,3,4]thiadiazol-2-yl]-pyrrolidin-1-yl}-methanone]",176,112,–,–

SMILES,IC50 (orexin-1; [1]) [nM],IC50 (human orexin-2 receptor; [2]) [nM],IC50 (human orexin-2 receptor) [nM],IC50 (orexin-1) [nM]
"Cc1ccc(-n2nccn2)c(C(=O)N2CCC[C@H]2c2nnc(-c3ccccc3)o2)c1 [compound 439, (5-Methyl-2-[1,2,3]triazol-2-yl-phenyl)-[(S)-2-(5-phenyl-[1,3,4]oxadiazol-2-yl)-pyrrolidin-1-yl]-methanone]",1800,1410,–,–
Cc1cc(-n2nccn2)c(C(=O)N2CCC[C@H]2c2nc(-c3cccc(Cl)c3C)no2)cc1Cl [compound 293],32,10,–,–
O=C(c1cccc(Cl)c1-n1nccn1)N1CCC[C@H]1c1nc(-c2ccccc2OC(F)(F)F)no1 [compound 298],531,517,–,–
"COc1cc(C(=O)N2CCC[C@H]2c2noc(-c3cccc(F)c3C)n2)c(-n2nccn2)cc1C [compound 310, {(S)-2-[5-(3-Fluoro-2-methyl-phenyl)-[1,2,4]oxadiazol-3-yl]-pyrrolidin-1-yl}-(5-methoxy-4-methyl-2-[1,2,3]triazol-2-yl-phenyl)-methanone]",59,2,–,–
C[C@@]1(c2nc(-c3ccccc3)no2)CCCN1C(=O)c1ncsc1-c1cccc(Cl)c1 [compound 538],941,2810,–,–
"COc1cccc(-c2nc([C@@H]3CCCN3C(=O)c3cc(C)c(C)cc3-n3nccn3)no2)c1C [compound 356, (4,5-Dimethyl-2-[1,2,3]triazol-2-yl-phenyl)-{(S)-2-[5-(3-methoxy-2-methyl-phenyl)-[1,2,4]oxadiazol-3-yl]-pyrrolidin-1-yl}-methanone]",57,7,–,–
Cc1ccc(-n2nccn2)c(C(=O)N2CCC[C@H]2c2nc(-c3cccc(Cl)c3)no2)c1 [compound 18],–,32,–,91
Cc1ccc(-n2nccn2)c(C(=O)N2CCC[C@@]2(C)c2nnc(-c3cccc(Cl)c3C)[nH]2)c1 [compound 550],272,178,–,–
Cc1c(Cl)cccc1-c1noc([C@@H]2CCCN2C(=O)c2cc(OC(F)(F)F)ccc2-n2nccn2)n1 [compound 99],–,614,–,895
"COc1cc(C(=O)N2CCC[C@H]2c2nc(-c3ccccc3OC(F)(F)F)no2)c(-n2nccn2)cc1F [compound 174, (4-Fluoro-5-methoxy-2-[1,2,3]triazol-2-yl-phenyl)-{(S)-2-[3-(2-trifluoromethoxy-phenyl)-[1,2,4]oxadiazol-5-yl]-pyrrolidin-1-yl}-methanone]",174,70,–,–
"COc1cc(C(=O)N2CCC[C@H]2c2nc(-c3ccccc3OC)no2)c(-n2nccn2)cc1C [compound 231, (5-Methoxy-4-methyl-2-[1,2,3]triazol-2-yl-phenyl)-{(S)-2-[3-(2-methoxy-phenyl)-[1,2,4]oxadiazol-5-yl]-pyrrolidin-1-yl}-methanone]",66,15,–,–
"Cc1nc(C(=O)N2CCC[C@H]2c2nnc(-c3ccccc3OC(F)(F)F)o2)c(-c2ccccc2F)s1 [compound 444, [5-(2-Fluoro-phenyl)-2-methyl-thiazol-4-yl]-{(S)-2-[5-(2-trifluoromethoxy-phenyl)-[1,3,4]oxadiazol-2-yl]-pyrrolidin-1-yl}-methanone]",83,60,–,–
O=C(c1ccoc1)N1CCC[C@H]1c1nc(-c2cccc(Cl)c2)no1 [Ref 5],> 8500,> 10000,–,–
"COc1cc(C)cc(-c2nc([C@@H]3CCCN3C(=O)c3cc(OC)c(C)cc3-n3nccn3)no2)c1 [compound 385, {(S)-2-[5-(3-Methoxy-5-methyl-phenyl)-[1,2,4]oxadiazol-3-yl]-pyrrolidin-1-yl}-(5-methoxy-4-methyl-2-[1,2,3]triazol-2-yl-phenyl)-methanone]",26,8,–,–
Cc1noc(-c2ccccc2C(=O)N2CCC[C@H]2c2nc(-c3ccccc3OC(F)(F)F)no2)n1 [compound 134],274,219,–,–
"CCOc1ncccc1-c1noc([C@@H]2CCCN2C(=O)c2cc(OC)c(C)cc2-c2ncccn2)n1 [compound 287, {(S)-2-[3-(2-Ethoxy-pyridin-3-yl)-[1,2,4]oxadiazol-5-yl]-pyrrolidin-1-yl}-(5-methoxy-4-methyl-2-pyrimidin-2-yl-phenyl)-methanone]",73,42,–,–
